Reference: PubChem BioAssay (NCI)
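Results reflect a 48-hour exposure of cells in 96-well plates to compound at five concentrations. The concentration for full growth arrest is given as TGI.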

Experiments:
Test in all cases: NCI tumour cell line growth inhibition, 48 h
[1] = system: 786-0 renal
[2] = system: A498 renal
[3] = system: A549 NSCLC
[4] = system: ACHN renal
[5] = system: CAKI-1 renal
[6] = system: CCRF-CEM leukemia
[7] = system: COLO 205 colon
[8] = system: DLD-1 colon
[9] = system: DMS 114 small cell lung
[10] = system: DMS 273 small cell lung
[11] = system: EKVX NSCLC
[12] = system: HCC-2998 colon
[13] = system: HCT-15 colon
[14] = system: HL-60(TB) leukemia
[15] = system: HOP-18 NSCLC
[16] = system: HOP-92 NSCLC
[17] = system: HT29 colon
[18] = system: IGROV1 ovarian
[19] = system: K-562 leukemia
[20] = system: KM12 colon
[21] = system: KM20L2 colon
[22] = system: LOX IMVI melanoma
[23] = system: M14 melanoma
[24] = system: M19-MEL melanoma
[25] = system: MALME-3M melanoma
[26] = system: MOLT-4 leukemia
[27] = system: NCI-H226 lung
[28] = system: NCI-H23 lung
[29] = system: NCI-H460 lung
[30] = system: OVCAR-3 ovarian
[31] = system: OVCAR-4 ovarian
[32] = system: OVCAR-5 ovarian
[33] = system: OVCAR-8 ovarian
[34] = system: RPMI-8226 leukemia
[35] = system: RXF 393 renal
[36] = system: SF-268 CNS
[37] = system: SF-295 CNS
[38] = system: SK-MEL-2 melanoma
[39] = system: SK-MEL-28 melanoma
[40] = system: SK-MEL-5 melanoma
[41] = system: SK-OV-3 ovarian
[42] = system: SN12C renal
[43] = system: SNB-19 CNS
[44] = system: SNB-75 CNS
[45] = system: SNB-78 CNS
[46] = system: SW-620 colon
[47] = system: TK-10 renal
[48] = system: U251 CNS
[49] = system: UACC-257 melanoma
[50] = system: UACC-62 melanoma
[51] = system: UO-31 renal
[52] = system: XF 498 CNS
[53] = system: HCT-116 colon
[54] = system: HOP-62 NSCLC
[55] = system: LXFL 529 NSCLC
[56] = system: NCI-H522 lung

COc1ccc(S(=O)(=O)N/N=C\c2cc([N+](=O)[O-])cc(I)c2O)c(OC)c1OC
TGI [1]: 61.4 µM | TGI [2]: 83 µM | TGI [3]: > 100 µM | TGI [4]: 92.1 µM | TGI [5]: 67.4 µM | TGI [6]: 59.1 µM | TGI [7]: 45 µM | TGI [8]: 95.1 µM | TGI [9]: 64.6 µM | TGI [10]: > 100 µM | TGI [11]: 80.7 µM | TGI [12]: 86.8 µM | TGI [13]: 55.8 µM | TGI [14]: 71.4 µM | TGI [15]: 63.5 µM | TGI [16]: 37 µM | TGI [17]: > 100 µM | TGI [18]: > 100 µM | TGI [19]: > 100 µM | TGI [20]: > 100 µM | TGI [21]: > 100 µM | TGI [22]: 92.4 µM | TGI [23]: 77.6 µM | TGI [24]: 87.2 µM | TGI [25]: 85.2 µM | TGI [26]: 64.9 µM | TGI [27]: 41.9 µM | TGI [28]: 67.1 µM | TGI [29]: > 100 µM | TGI [30]: 62.8 µM | TGI [31]: 72.7 µM | TGI [32]: > 100 µM | TGI [33]: > 100 µM | TGI [34]: 71.6 µM | TGI [35]: 54.6 µM | TGI [36]: 75 µM | TGI [37]: > 100 µM | TGI [38]: 45.3 µM | TGI [39]: 64.7 µM | TGI [40]: 45.5 µM | TGI [41]: 64 µM | TGI [42]: > 100 µM | TGI [43]: 76.3 µM | TGI [44]: 70.1 µM | TGI [45]: 74 µM | TGI [46]: > 100 µM | TGI [47]: > 100 µM | TGI [48]: 66 µM | TGI [49]: 75.5 µM | TGI [50]: 45.4 µM | TGI [51]: 40.2 µM | TGI [52]: 48 µM

O=C(NC(=S)Nc1ccccc1)c1ccc([N+](=O)[O-])cc1
TGI [1]: > 100 µM | TGI [3]: > 100 µM | TGI [4]: > 100 µM | TGI [5]: > 100 µM | TGI [6]: > 100 µM | TGI [7]: > 100 µM | TGI [8]: > 100 µM | TGI [9]: 44.5 µM | TGI [10]: > 100 µM | TGI [11]: > 100 µM | TGI [12]: > 100 µM | TGI [53]: > 100 µM | TGI [13]: > 100 µM | TGI [14]: > 100 µM | TGI [15]: > 100 µM | TGI [54]: > 100 µM | TGI [16]: > 100 µM | TGI [17]: > 100 µM | TGI [18]: > 100 µM | TGI [19]: > 100 µM | TGI [20]: > 100 µM | TGI [21]: > 100 µM | TGI [22]: > 100 µM | TGI [55]: > 100 µM | TGI [23]: > 100 µM | TGI [24]: > 100 µM | TGI [25]: > 100 µM | TGI [26]: > 100 µM | TGI [28]: > 100 µM | TGI [29]: > 100 µM | TGI [56]: 86.6 µM | TGI [30]: > 100 µM | TGI [31]: > 100 µM | TGI [33]: > 100 µM | TGI [34]: > 100 µM | TGI [36]: > 100 µM | TGI [37]: > 100 µM | TGI [39]: > 100 µM | TGI [40]: > 100 µM | TGI [41]: > 100 µM | TGI [42]: > 100 µM | TGI [44]: > 100 µM | TGI [45]: > 100 µM | TGI [46]: > 100 µM | TGI [47]: > 100 µM | TGI [49]: > 100 µM | TGI [50]: > 100 µM | TGI [51]: > 100 µM | TGI [52]: > 100 µM
